Article PMC3666173 (Basic research in cardiology, 2012)
No end group written: not given here.

Experiments:
[1] = target: Cx43 hemichannels (C6-Cx43 cells) (Homo sapiens, UniProt P17302); experiment: [Ca2+]i-triggered; format: cell-based
[2] = system: pannexin-1 (Panx1) hemichannels (C6-Panx1 cells); experiment: High [K+]e-triggered ATP release in C6-Panx1 cells; format: cell-based; conditions: [K+]e = 143 mM, carbenoxolone 10 μM, 30 min, 10Panx1 200 μM
C6-Cx43 cells = conditions: A23187 2.2 μM, 5 min; ref [19], [49]; cited from earlier work

Sequence of Cx43 hemichannels (C6-Cx43 cells) (P17302 whole entry): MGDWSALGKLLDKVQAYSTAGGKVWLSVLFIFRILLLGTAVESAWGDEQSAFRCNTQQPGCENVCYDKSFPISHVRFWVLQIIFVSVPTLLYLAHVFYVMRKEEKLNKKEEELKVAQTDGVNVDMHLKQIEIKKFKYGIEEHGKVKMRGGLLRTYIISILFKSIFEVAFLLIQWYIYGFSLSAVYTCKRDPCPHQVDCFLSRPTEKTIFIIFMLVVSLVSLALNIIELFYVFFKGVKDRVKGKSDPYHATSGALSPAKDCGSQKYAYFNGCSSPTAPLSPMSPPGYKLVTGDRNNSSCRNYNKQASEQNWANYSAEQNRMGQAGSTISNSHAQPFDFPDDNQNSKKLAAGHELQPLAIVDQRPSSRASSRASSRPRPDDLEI

Compound: YGRKKRRQRRRKQIEIKKFK
- IC50 [1]: ~7 µM

Compound: CC1(C)[C@@H](OC(=O)CCC(=O)O)CC[C@]2(C)[C@H]3C(=O)C=C4[C@@H]5C[C@@](C)(C(=O)O)CC[C@]5(C)CC[C@@]4(C)[C@]3(C)CC[C@@H]12 [carbenoxolone]
- high [K+]e-triggered ATP release ([2]; n = 12): suppressed
- high [K+]e-triggered ATP release ([2]; n = 12, listed as Cbx): blocked

Compound: CNc1ccc2oc(C[C@H]3O[C@@]4(CC[C@H]3C)O[C@H]([C@H](C)C(=O)c3ccc[nH]3)[C@H](C)C[C@H]4C)nc2c1C(=O)O [A23187]
- [Ca2+]i-triggered ATP release ([1]; Ca2+ ionophore, 2.2 μM, 5 min, C6-Cx43 vs C6-pLTR, n = 12): triggered significant ATP release in C6-Cx43 but not in C6 cells stably transfected with the empty vector
- transient elevation of [Ca2+]i (C6-Cx43 cells): ~ 500 nM
